As usually defined, the chromatographic logD is a lipophilicity value derived from retention on a column. Higher therefore signals higher lipophilicity. For orientation: pIC50 means −log10 of the IC50, conventionally taken in molar units.

Series [1] in a line: IAM chromatography (IAM-HPLC), IAM.PC.DD2 column. The class given is physicochemical. Particulars: pH 7.4; for CHI (CHIIAM), Table S2: IAM chromatography, from mean of three retention times; for logkIAM: logkIAM = 0.045 CHIIAM + 0.42. An excerpt:
(§1) For this reason, the next step of our study concerns the characterization of investigated sulfonamide derivatives using a chromatographic approach. Generally, in RP-HPLC, the interactions between solutes and the stationary phase surface are mainly governed by lipophilicity. Consequently, RP-HPLC is the primary tool for assessing the lipophilicity of xenobiotics. […] Generally, the chemical character of target solutes determines interactions between the molecule and the stationary phase that may occur. Considering the large variety of RP-HPLC beds and differences in specific surface area, the energy of the sorbent’s intermolecular interactions between solutes and chemical structures, four different reversed-phase stationary phases and IAM column were investigated during this study. The lipophilicity index was presented as a logkw value, so the retention factor was extrapolated to the pure water after calculation using a protocol based on two gradient measurements and DryLab software.
(§2) Since the biomimetic chromatography experiments are carried out at physiological pH to compare obtained results, all chromatographic experiments have been carried out at pH 7.4. […] Consequently, the chromatography lipophilicity indices refer to the distribution coefficient (logD) values, which better reflect the lipophilicity of ionized substances under physiological conditions.
(§3) All HPLC experiments were carried out using a Prominence-1 LC-2030C 3D HPLC system (Shimadzu, Japan) equipped with a DAD detector and controlled by the LabSolution system (version 5.90 Shimadzu, Japan). The stock solutions of solutes were diluted to obtain 100 μg/mL concentrations, and the injected volume was 10 μL. During this study, six different columns in terms of chemical modification of stationary phases were used. Retention times (tR) of investigated sulfonamides were collected, and their detection in all systems was performed at the wavelength characteristic for each compound, summarized in Table S1. For all chromatography systems, analysis was carried out at 40 °C, except for IAM chromatography, in which oven temperature was set to 30 °C. The CHIIAM and CHI18 indices of the target sulfonamides derivatives were obtained using the protocol proposed by Valko and co-workers. C18 chromatography was performed on a Waters-C18 column (150 mm × 3.9 mm; 5.0 µm; Symmetry; USA), with a 1.5 mL/min flow rate. The mobile phase was ammonium acetate buffer (50 mM) at pH 7.4 and acetonitrile as an organic modifier. The linear gradient from 2 to 98% ACN was applied from 0 to 30 min. IAM chromatography was executed on an IAM.PC.DD2 column ([…] × 4.6 mm; 10.0 µm; Regis Technologies, Morton Grove, IL, USA) additionally equipped with an IAM guard column with the same flow rate of 1.5 mL/min. The mobile phase was sodium phosphate buffer (10 mM) at pH 7.4 and acetonitrile as the organic phase. The linear gradient from 0 to 85% was applied within 5.25 min.

Series [2] can be described thus: C18 chromatography (RP-HPLC), chromatographic hydrophobicity index. The class given is physicochemical. Particulars: for chromatographic logD: Waters Symmetry C18 column, CHI log D = 0.0525 CHIC18 − 1.467, pH 7.4; for CHIC18: pH 7.4, 40 °C, acetonitrile gradient.
Excerpt: as §1, §2, §3

Series [3] is described as follows: C8 chromatography (RP-HPLC), logkw from two gradients with DryLab. It counts as physicochemical. Particulars: for logkw, Table S4: C8 chromatography, pH 7.4, short and long gradient; for logkwC8: pH 7.4, 40 °C, retention factor extrapolated to 0% organic modifier.
Excerpt: as §1, §2
(§4) For C8, cyanopropyl, and phenyl chromatography, according to the assumption proposed by Snyder and co-workers, appropriate logkw values (i.e., the retention factor logk extrapolated to 0% organic modifier, as an alternative to logP) were obtained. […] Dwell volume for these HPLC systems was measured at 0.780 mL, whereas the obtained dead times for used HPLC columns were equal to 1.530 min, 1.252 min, and 2.335 min for C8, SB-CN, and UK-Phenyl, respectively. The mobile phase was ammonium acetate buffer (50 mM) at pH 7.4 and acetonitrile as an organic modifier in each system. C8 chromatography was performed on Unison UK-C8 column (150 × 2 mm; 3.0 µm. Imtakt; USA) with 0.3 mL/min flow rate. Analyses were carried out in linear gradient from 30 to 100% within 15 min in short gradient and 30 min in long gradient. The Agilent SB-CN column (150 × 4.6 mm; 3.5 µm; Zorbax; USA) was used for the cyanopropyl chromatography. The CN chromatography analyses were carried out in linear gradient from 20 to 100%, which was applied from 0 to 20 min in short gradient, and from 0 to 40 min in long gradient. The flow rate was 1.5 mL/min. The column Unison UK-Phenyl (150 × 2 mm; 3.0 µm; Imtakt; USA) was used to perform phenyl chromatography. The flow rate was set to 0.2 mL/min. The phenyl analyses were carried out in linear gradient from 40 to 100%, which was applied from 0 to 20 min in short gradient, and from 0 to 40 min in long gradient. Each HPLC analysis was run in triplicate; in Tables S2–S6, obtained retention times are listed, whereas representative chromatograms are shown in Figure 9.

Series [4] is described as follows: Cyanopropyl (CN) chromatography, logkw from two gradients with DryLab. It counts as physicochemical. Particulars: for logkw, Table S5: Cyanopropyl chromatography, pH 7.4, short and long gradient; for logkwCN: pH 7.4, 40 °C, retention factor extrapolated to 0% organic modifier.
Excerpt: as §1, §2, §4

Series [5] in a line: Phenyl (Ph) chromatography, logkw from two gradients with DryLab. The following applies: for logkw, Table S6: Phenyl chromatography, pH 7.4, short and long gradient; for logkwPh: pH 7.4, 40 °C, retention factor extrapolated to 0% organic modifier. The class given is physicochemical.
Excerpt: as §1, §2, §4

Series [6] deals with human colon cancer (HCT-116). More on the design: method as in PMID 29772699, PMID 28122174, PMID 27338337, PMID 26506328. The following applies: HCT-116 cell line; cited from earlier work.

The structures appear in SMILES notation.

Take `Cc1ccnc(NS(=O)(=O)c2ccc(-n3cccc3)cc2)n1` [Compound 1]: in series [1], the “CHI (CHIIAM), Table S2” value is recorded as 19.2 and the logkIAM was determined as 1.28. Also, the “lipophilicity rank by the chromatographic experiments” value in series [1] (based on the experimental data of all chromatographic systems) is “least lipophilic”. In series [2], this molecule showed a chromatographic logD of 1.51 and a CHIC18 of 56.70. Besides, in series [3], the “logkw, Table S4” value is 2.980 and the logkwC8 is given as 2.98. Moreover, in series [4], the “logkw, Table S5” value is 1.580 and the logkwCN was 1.58. Moreover, in series [5], the “logkw, Table S6” value was found to be 2.620 and the logkwPh is listed as 2.62. Also, the pIC50 in series [6] was 4.34.
With `O=S(=O)(Nc1cccc2cccnc12)c1ccc(-n2cccc2)cc1` [Compound 2], in series [1], the “CHI (CHIIAM), Table S2” value turned out to be 45.0 and the logkIAM stood at 2.45. Also, in series [2], the chromatographic logD was found to be 3.65 and the CHIC18 was 97.50. For the same molecule, in series [3], the “logkw, Table S4” value stood at 4.682 and the logkwC8 was 4.68. In series [4], the “logkw, Table S5” value turned out to be 4.040 and the logkwCN is 4.04. Also, in series [5], the “logkw, Table S6” value is 6.221 and the logkwPh is 6.22. Besides, in series [6], the negative-log IC50 (pIC50) is listed as 6.00.
Turning to `Cc1ccc2cccnc2c1NS(=O)(=O)c1ccc(-n2cccc2)cc1` [Compound 3], in series [1], the “CHI (CHIIAM), Table S2” value was 42.0 and the logkIAM turned out to be 2.31. In series [2], this molecule returned a chromatographic logD of 3.51 and a CHIC18 of 94.80. Further, in series [3], the “logkw, Table S4” value is given as 4.593 and the logkwC8 was 4.59. For the same molecule, in series [4], the “logkw, Table S5” value was 2.966 and the logkwCN is recorded as 2.97. Also, in series [5], the “logkw, Table S6” value is reported as 5.556 and the logkwPh is recorded as 5.56. In series [6], the pIC50 is 4.72.
In the case of `Cc1ccc2cccc(NS(=O)(=O)c3ccc(-n4cccc4)cc3)c2n1` [Compound 4], in series [1], the “CHI (CHIIAM), Table S2” value was determined as 45.9 and the logkIAM is 2.49. In series [2], the chromatographic logD was 4.04 and the CHIC18 came out at 104.80. In series [3], the “logkw, Table S4” value stood at 4.898 and the logkwC8 is 4.90. In addition, in series [4], the “logkw, Table S5” value came to 3.628 and the logkwCN is 3.63. Moreover, in series [5], the “logkw, Table S6” value amounted to 7.389 and the logkwPh is given as 7.39. Besides, the pIC50 in series [6] is 5.05.
On to `O=S(=O)(Nc1cccc2nsnc12)c1ccc(-n2cccc2)cc1` [Compound 5], for which, in series [1], the “CHI (CHIIAM), Table S2” value worked out at 31.4 and the logkIAM was found to be 1.83. In series [2], this molecule showed a chromatographic logD of 2.89 and a CHIC18 of 82.90. For the same molecule, in series [3], the “logkw, Table S4” value was 4.055 and the logkwC8 is 4.06. For the same molecule, in series [4], the “logkw, Table S5” value was determined as 2.300 and the logkwCN is 2.30. Also, in series [5], the “logkw, Table S6” value came to 4.079 and the logkwPh was 4.08. Besides, the pIC50 in series [6] is 4.64.
For the molecule `O=S(=O)(Nc1ccc(Cl)cc1)c1ccc(-n2cccc2)cc1` [Compound 6], in series [1], the “CHI (CHIIAM), Table S2” value is listed as 45.4 and the logkIAM is 2.46. In series [2], this molecule gave a chromatographic logD of 3.5 and a CHIC18 of 94.70. For the same molecule, in series [3], the “logkw, Table S4” value is 4.609 and the logkwC8 is 4.61. In series [4], the “logkw, Table S5” value was 2.892 and the logkwCN is on record as 2.89. For the same molecule, in series [5], the “logkw, Table S6” value was determined as 5.391 and the logkwPh was 5.39. Besides, in series [6], the negative-log IC50 (pIC50) is 4.15.
In the case of `Cc1cc(C)nc(NS(=O)(=O)c2ccc(-n3cccc3)cc2)n1` [Compound 7], in series [1], the “CHI (CHIIAM), Table S2” value was 24.3 and the logkIAM was found to be 1.51. In series [2], this molecule displayed a chromatographic logD of 1.88 and a CHIC18 of 63.80. In series [3], the “logkw, Table S4” value is 3.300 and the logkwC8 was 3.30. For the same molecule, in series [4], the “logkw, Table S5” value is 1.780 and the logkwCN was 1.78. Further, in series [5], the “logkw, Table S6” value is recorded as 2.810 and the logkwPh is 2.81. In series [6], the negative logarithm of the IC50 (pIC50) is given as 4.16.
In the case of `Cc1cc(S(=O)(=O)Nc2nnc(-c3ccccc3)c(=O)[nH]2)c(SCc2ccc(C(F)(F)F)cc2)cc1Cl` [Compound 8], in series [1], the “CHI (CHIIAM), Table S2” value was found to be 36.7 and the logkIAM was determined as 2.07. In addition, in series [2], the chromatographic logD came out at 2.88 and the CHIC18 was 82.80. Also, in series [3], the “logkw, Table S4” value came to 4.206 and the logkwC8 is reported as 4.21. Moreover, in series [4], the “logkw, Table S5” value worked out at 2.010 and the logkwCN is 2.01. Also, in series [5], the “logkw, Table S6” value was 4.490 and the logkwPh is listed as 4.49. For the same molecule, the pIC50 in series [6] is on record as 4.10.
For `Cc1cc(S(=O)(=O)Nc2nnc(C)c(=O)[nH]2)c(SCc2cccc3ccccc23)cc1Cl` [Compound 9], in series [1], the “CHI (CHIIAM), Table S2” value is given as 31.4 and the logkIAM is on record as 1.83. Also, in series [2], the chromatographic logD came out at 2.33 and the CHIC18 was 72.30. Besides, in series [3], the “logkw, Table S4” value is on record as 3.692 and the logkwC8 is 3.69. In series [4], the “logkw, Table S5” value turned out to be 1.850 and the logkwCN is listed as 1.85. Also, in series [5], the “logkw, Table S6” value was 2.880 and the logkwPh is 2.88. Besides, the pIC50 in series [6] was 4.07.
In the case of `CC(=O)NS(=O)(=O)c1cc(C)c(Cl)cc1SCc1cccc2ccccc12` [Compound 26], in series [1], the “CHI (CHIIAM), Table S2” value was 30.6 and the logkIAM was determined as 1.80. In series [2], this molecule yielded a chromatographic logD of 2.95 and a CHIC18 of 84.10. In series [3], the “logkw, Table S4” value came out at 3.655 and the logkwC8 is reported as 3.66. For the same molecule, in series [4], the “logkw, Table S5” value was 1.763 and the logkwCN is given as 1.76. Also, in series [5], the “logkw, Table S6” value came out at 2.870 and the logkwPh is 2.87.
Consider `Cc1cc(S(=O)(=O)NC(=O)C=Cc2ccccc2)c(SCc2cccc3ccccc23)cc1Cl` [Compound 27], for which, in series [1], the “CHI (CHIIAM), Table S2” value worked out at 39.6 and the logkIAM stood at 2.20. Also, in series [2], the chromatographic logD worked out at 2.37 and the CHIC18 is listed as 73.10. In series [3], the “logkw, Table S4” value was found to be 4.279 and the logkwC8 is reported as 4.28. In addition, in series [4], the “logkw, Table S5” value is 2.313 and the logkwCN is recorded as 2.31. For the same molecule, in series [5], the “logkw, Table S6” value is 4.460 and the logkwPh was 4.46.

The record behind these values is paper PMC9268166, “Modeling of Anticancer Sulfonamide Derivatives Lipophilicity by Chemometric and Quantitative Structure-Retention Relationships Approaches” (Molecules, 2022).
